Test results: patent US9771343B2, “2-alkyl-or-aryl-substituted tanshinone derivatives, and preparation method and application thereof” (Hangzhou Bensheng Pharmaceutical Co., Ltd., priority 2011, dated 2017)
Values after ≈ are worked out from the molar mass of the structure shown.

Key:
[1] = test system: K562/adr (drug-resistant, chronic myeloid leukemia, CML); assay: MTT cell growth inhibition, K562/adr leukemia cells, 72 h; type: cell-based; conditions: Homo sapiens, K562/Adr
Description: (§1) The standard sample of tanshinone I (TA) and the 2-alkyl- or 2-aromatic-substituted tanshinone I derivatives of the present invention are sufficiently dissolved in dimethylsulfoxide to produce a stock solution of 10 mg/mL, which is refrigerated at 4° C. and stored in dark, and is diluted with cell culture medium to a desired concentration prior to experimentation.
(§2) Obtaining 6000 well-growing leukemia cells and inoculating them into wells of a 96-well cell culture plate. The culture medium is the RPMI-1640 cell culture medium containing 10% fetal bovine serum. After adding on the second day the 2-alkyl- or 2-aromatic-substituted tanshinone I derivatives of different concentrations and mixing uniformly, placing the plate in a carbon dioxide cell incubator (5% CO2) at 37° C. and incubated for 72 hours. Then the viable cell concentration is determined by MTT method. In this experiment, the cell viability in control group (not treated with any compound) is set as 100%, and the cell viability (%) after treatment by the compounds and the half maximum inhibitory concentration for the leukemia cell at 72 hours (IC50 value of 72 hours, μg/mL) are calculated.

[2] = test system: Kasumi-1 (acute myeloid leukemia M2 type, AML-M2); assay: MTT cell growth inhibition, Kasumi-1 leukemia cells, 72 h; type: cell-based; conditions: Homo sapiens, Kasumi-1, 72 h
Description: as §1, §2

[3] = test system: NB4 (acute promyelocytic leukemia, AML); assay: MTT cell growth inhibition, NB4 leukemia cells, 72 h; type: cell-based; conditions: NB4, 72 h
Description: as §1, §2

[4] = test system: Jurkat (acute lymphoblastic leukemia, ALL); assay: MTT cell growth inhibition, Jurkat leukemia cells, 72 h; type: cell-based; conditions: Homo sapiens, 72 h
Description: as §1, §2

[5] = test system: H9 (acute lymphoblastic leukemia, ALL); assay: MTT cell growth inhibition, H9 leukemia cells, 72 h; type: cell-based; conditions: H9, 72 h
Description: as §1, §2

[6] = test system: RPMI8226 (multiple myeloma); assay: MTT cell growth inhibition, RPMI8226 multiple myeloma cells, 72 h; type: cell-based, human; conditions: Homo sapiens, RPMI 8226, 72 h
Description: as §1, §2

A549 (human lung cancer) = assay: MTT cell growth inhibition, A549 cells, 72 h; type: cell-based; conditions: Homo sapiens, A549, 72 h
Description: as §1, with “with a” for “with”, “to the” for “to a”
(§3) Obtaining 6000 well-growing human solid tumor cells and inoculating them into wells of a 96-well cell culture plate. The culture medium is DMEM High Glucose cell culture medium containing 10% fetal bovine serum. The plate is placed in a carbon dioxide cell incubator (5% CO2) at 37° C. and incubated for 24 hours. After adding the 2-alkyl- or 2-aromatic-substituted tanshinone I derivatives of different concentrations and mixing uniformly, the plate is placed in a carbon dioxide cell incubator (5% CO2) at 37° C. and incubated for 72 hours. Then the viable cell concentration is determined by MTT method. In this experiment, the cell viability in control group (not treated with any compound) is set as 100%, and the cell viability (%) after treatment by the compounds and the half maximum inhibitory concentration for the leukemia cell at 72 hours (IC50 value of 72 hours, μg/mL) are calculated.

[7] = test system: PANC-1 (pancreatic cancer); assay: MTT cell growth inhibition, PANC-1 cells, 72 h; type: cell-based, human; conditions: Homo sapiens, PANC-1, 72 h
Description: as §1, with “with a” for “with”, “to the” for “to a”
as §3

[8] = test system: Becap37 (human breast cancer cell); assay: MTT cell growth inhibition, Becap37 cells, 72 h; type: cell-based; conditions: Homo sapiens, Becap-37, 72 h
Description: as §1, with “with a” for “with”, “to the” for “to a”
as §3

MG63 (osteosarcoma) = assay: MTT cell growth inhibition, MG63 cells, 72 h; type: cell-based, human; conditions: Homo sapiens, MG-63, 72 h
Description: as §1, with “with a” for “with”, “to the” for “to a”
as §3

[9] = test system: Hep G2 (human liver cancer cell); assay: MTT cell growth inhibition, Hep G2 cells, 72 h; type: cell-based; conditions: Homo sapiens, HepG2, Hep G2, 72 h
Description: as §1, with “with a” for “with”, “to the” for “to a”
as §3

[10] = test system: RKO (human colon adenocarcinoma cell); assay: MTT cell growth inhibition, RKO cells, 72 h; type: cell-based
Description: as §1, with “with a” for “with”, “to the” for “to a”
as §3

[11] = test system: U87 MG (malignant glioma cell); assay: MTT cell growth inhibition, U87 MG cells, 72 h; type: cell-based, human; conditions: Homo sapiens, U-87 MG, U87-MG, 72 h
Description: as §1, with “with a” for “with”, “to the” for “to a”
as §3

[12] = test system: Hela (human cervical cancer cell); assay: MTT cell growth inhibition, Hela cells, 72 h; type: cell-based; conditions: Homo sapiens, HeLa, 72 h
Description: as §1, with “with a” for “with”, “to the” for “to a”
as §3

[13] = test system: CaES-17 (esophageal cancer cell); assay: MTT cell growth inhibition, CaES-17 cells, 72 h; type: cell-based, human; conditions: Homo sapiens, CaEs17, CaEs-17, 72 h
Description: as §1, with “with a” for “with”, “to the” for “to a”
as §3

[14] = test system: CNE (nasopharyngeal carcinoma cell); assay: MTT cell growth inhibition, CNE cells, 72 h; type: cell-based, human
Description: as §1, with “with a” for “with”, “to the” for “to a”
as §3

[15] = test system: Hep-2 (laryngeal carcinoma); assay: MTT cell growth inhibition, Hep-2 cells, 72 h; type: cell-based, human; conditions: Homo sapiens, HEp-2, 72 h
Description: as §1, with “with a” for “with”, “to the” for “to a”
as §3

[16] = test system: MGC 803 (human gastric cancer cell); assay: MTT cell growth inhibition, MGC 803 cells, 72 h; type: cell-based; conditions: Homo sapiens, MGC-803, 72 h
Description: as §1, with “with a” for “with”, “to the” for “to a”
as §3

PC-3 (prostate cancer) = assay: MTT cell growth inhibition, PC-3 cells, 72 h; type: cell-based, human
Description: as §1, with “with a” for “with”, “to the” for “to a”
as §3

[17] = test system: SK-OV-3 (ovarian cancer cell); assay: MTT cell growth inhibition, SK-OV-3 cells, 72 h; type: cell-based, human; conditions: Homo sapiens, SK-OV-3, 72 h
Description: as §1, with “with a” for “with”, “to the” for “to a”
as §3

IC50 ([1]; read-out: IC50): 8.84 µg/mL (≈ 30.4 µM) | IC90 ([1]; read-out: IC90): 28.7 µg/mL (≈ 98.7 µM) | IC50 ([2]; read-out: IC50): 9.66 µg/mL (≈ 33.3 µM) | IC90 ([2]; read-out: IC90): 30.3 µg/mL (≈ 104 µM) | IC50 ([3]; read-out: IC50): 1.13 µg/mL (≈ 3.89 µM) | IC90 ([3]; read-out: IC90): 3.64 µg/mL (≈ 12.5 µM) | IC50 ([4]; read-out: IC50): 1.88 µg/mL (≈ 6.48 µM) | IC90 ([4]; read-out: IC90): 6.97 µg/mL (≈ 24 µM) | IC50 ([5]; read-out: IC50): 6.4 µg/mL (≈ 22 µM) | IC90 ([5]; read-out: IC90): > 16 µg/mL | IC50 ([6]; read-out: IC50): 2 µg/mL (≈ 6.89 µM) | IC90 ([6]; read-out: IC90): 16.5 µg/mL (≈ 56.8 µM) | IC50 (A549 (human lung cancer); read-out: IC50): 6.45 µg/mL (≈ 22.2 µM) | IC90 (A549 (human lung cancer); read-out: IC90): > 16 µg/mL | IC50 ([7]; read-out: IC50): 3.46 µg/mL (≈ 11.9 µM) | IC90 ([7]; read-out: IC90): > 16 µg/mL | IC50 ([8]; read-out: IC50): 3.96 µg/mL (≈ 13.6 µM) | IC90 ([8]; read-out: IC90): > 16 µg/mL | IC50 (MG63 (osteosarcoma); read-out: IC50): 3.18 µg/mL (≈ 11 µM) | IC90 (MG63 (osteosarcoma); read-out: IC90): > 16 µg/mL | IC50 ([9]; read-out: IC50): 5.48 µg/mL (≈ 18.9 µM) | IC90 ([9]; read-out: IC90): > 16 µg/mL | IC50 ([10]; Homo sapiens, RKO, 72 h, read-out: IC50): 1.35 µg/mL (≈ 4.65 µM) | IC90 ([10]; Homo sapiens, RKO, 72 h, read-out: IC90): > 16 µg/mL | IC50 ([11]; read-out: IC50): 6.63 µg/mL (≈ 22.8 µM) | IC90 ([11]; read-out: IC90): 16.8 µg/mL (≈ 57.7 µM) | IC50 ([12]; read-out: IC50): 4 µg/mL (≈ 13.8 µM) | IC90 ([12]; read-out: IC90): > 16 µg/mL | IC50 ([13]; read-out: IC50): 5.19 µg/mL (≈ 17.9 µM) | IC90 ([13]; read-out: IC90): 20.4 µg/mL (≈ 70.3 µM) | IC50 ([14]; Homo sapiens, CNE, 72 h, read-out: IC50): 3.9 µg/mL (≈ 13.4 µM) | IC90 ([14]; Homo sapiens, CNE, 72 h, read-out: IC90): 97 µg/mL (≈ 334 µM) | IC50 ([15]; read-out: IC50): 9.17 µg/mL (≈ 31.6 µM) | IC90 ([15]; read-out: IC90): > 16 µg/mL | IC50 ([16]; read-out: IC50): 4.65 µg/mL (≈ 16 µM) | IC90 ([16]; read-out: IC90): 18.4 µg/mL (≈ 63.4 µM) | IC50 (PC-3 (prostate cancer); Homo sapiens, PC-3, 72 h, read-out: IC50): 4.99 µg/mL (≈ 17.2 µM) | IC90 (PC-3 (prostate cancer); Homo sapiens, PC-3, 72 h, read-out: IC90): 17.5 µg/mL (≈ 60.3 µM) | IC50 ([17]; read-out: IC50): > 16 µg/mL | IC90 ([17]; read-out: IC90): > 16 µg/mL
Structure (SMILES): Cc1oc2c(c1C)C(=O)C(=O)c1c-2ccc2c(C)cccc12 [BS-TA-03]
anti-RKO activity (in words) ([10]; Table 2): good activity | anti-CNE activity (in words) ([14]; Table 2): good activity | anti-PC-3 activity (in words) (PC-3 (prostate cancer); Table 2): good activity
